# Test system: 4T1.2 cells
# Assay: In vitro cytotoxicity, MTT assay, 4T1.2
# Format: cell-based, mouse
# Details: 72 h
# Experimental: 4T1.2 , PC3, Panc02, and B16 cells at 2000 cells/well were seeded in 96-well plates, respectively. […] After 3 days of incubation, 20 μL of 3-(4,5-dimethylthiazol-2-yl)-2,5-diphenyltetrazoliumbromide (MTT) in DPBS (5 mg/mL) was added to each well and cells were further incubated for 2 h. Medium was removed and MTT formazan crystals were solubilized by 100 μL of DMSO per well. Absorbance of each well was measured with a microplate reader at wavelength of 550 nm. Untreated wells were used as controls. Cell viability was calculated as [(ODtreated-ODblank)/(ODcontrol-ODblank)×100%].
smiles,measurement,value
"CC(=O)O[C@H]1C(=O)[C@@]2(C)[C@H]([C@H](OC(=O)c3ccccc3)[C@]3(O)C[C@H](OC(=O)[C@H](O)[C@@H](NC(=O)c4ccccc4)c4ccccc4)C(C)=C1C3(C)C)[C@]1(OC(C)=O)CO[C@@H]1C[C@@H]2O [PTX, paclitaxel]",cytotoxicity (tumor cell growth inhibition),inhibited the tumor cell growth in a concentration-dependent manner

# Reference: US20180214563A1, “IMMUNOSTIMULATORY NANOCARRIER” (University of Pittsburgh - Of the Commonwealth System of …, priority 2015, published 2018)
